Tested on: 252836-082-R-J2-PDC tumor spheroids, viability
Assay: Anticancer human tumor 252836-082-R-J2-PDC patient-derived head and neck squamous cell carcinoma cell line growth inhibition [PI3K]
Conditions: spheroids with HUVEC and MSC; for IC50: curve of first compound; for viability, T/C: stronger effect = lower value
Description: Combinatorial screen of targeted agents with the PI3K inhibitors inavolisib, alpelisib, duvelisib, and copanlisib in multi-cell type tumor spheroids
A high-throughput screen of multi-cell type tumor spheroids was designed to identify active combinations of targeted small molecules and PI3K pathway inhibitors. Complex spheroids include a stromal component modeled by human endothelial cells (HUVEC) and fibroblasts modeled by human mesenchymal stem cells (MSCs). The concentration ranges selected for each drug and investigational agent were based upon clinically achievable concentrations if the clinical Cmax of the agent was known.
Compounds. The drugs and investigational agents: inavolisib (NSC800729), alpelisib (NSC765974), duvelisib (NSC772469), copanlisib (NSC816437), ipatasertib (NSC767898), afuresertib (NSC778305), talazoparib (NSC767125), sapanisertib (NSC764658), selumetinib (NSC741078), tovorafenib (DAY101, NSC766906), vemurafenib (NSC761431), ravoxertinib (NSC781343), sotorasib (NSC818433), MRTX1133 (NSC 836407), abemaciclib (NSC 768073), palbociclib (NSC758247), venetoclax (NSC 766270), SY5609 (NSC837396), enzalutamide (NSC755605), and darolutamide (NSC825331), were obtained from the National Cancer Institute (NCI) Developmental Therapeutics Program Chemical Repository. The FDA-approved anticancer drug set is available from the NCI Developmental Therapeutics Program. […] The stock solutions were prepared in dimethyl sulfoxide (DMSO, Sigma-Aldrich, St. Louis, MO, cat. D2650) at 800-fold the tested concentration and stored at -70 degrees C prior to their use. All drugs and investigational agents were tested over a range starting from a high concentration at or near the clinical Cmax and decreasing in half-log increments. If the clinical Cmax for an agent had not been determined, the highest concentration tested was 10 microM.
Cell Culture. All cells were maintained in an incubator at 37 degrees C and 5% CO2 with 95% humidity. The PDC lines were cultured according to standard operating procedures established by the NCI PDMR (https://pdmr.cancer.gov/sops/default.htm). All PDCs were thawed and cultured in Matrigel-coated flasks prepared with a working solution of 1X Ham's F-12 nutrient mix, without supplementation (Invitrogen, Waltham, MA, cat. 11765054), 100 U/mL penicillin-streptomycin (Invitrogen, cat. 15140122), and 2.5% Matrigel (Corning Inc., Corning, NY, cat. 354248) for the first three passages. The 354836-022-R-J1-PDC, 475296-252-R-J1-PDC, and 997726-040-R-J2-PDC lines were cultured in 6A media, which includes advanced DMEM/F-12 (Thermo Fisher Scientific, cat. 12634028), 10 mM HEPES (Thermo Fisher Scientific, cat. 15630080), 1X GlutaMAX supplement (Thermo Fisher Scientific, cat. 35050061), 0.1 mg/mL primocin (InvivoGen, San Diego, CA, cat. ant-pm-2), 10% defined fetal bovine serum, heat inactivated (HyClone Laboratories Inc., Logan, UT, cat. SH30070.03HI), 50% L-WRN conditioned media (ATCC, cat. CRL-3276), 1.25 mM N-Acetyl-L-cysteine (Sigma-Aldrich, cat. A9165), 10 mM nicotinamide (Sigma-Aldrich, cat. N0636), 1X B-27 supplement (Thermo Fisher Scientific, cat. 17504044), 1X N-2 supplement (Thermo Fisher Scientific, cat. 17502048), and 10 microM Y-27632 dihydrochloride (Tocris Bioscience, Bristol, United Kingdom, cat. 1254). The 624824-186-R-J2-PDC line was cultured in 6C/Colon 1B media, which includes all 6A media components plus 50 ng/mL human EGF recombinant protein (Thermo Fisher Scientific, cat. PHG0311). […]

[1] = second compound 0.0316 µM, first compound 0.0316 µM
[2] = second compound 0.0316 µM, first compound 0.1 µM
[3] = second compound 0.1 µM, first compound 0.0316 µM
[4] = second compound 0.1 µM, first compound 0.1 µM
[5] = second compound 0.316 µM, first compound 0.0316 µM
[6] = second compound 0.316 µM, first compound 0.1 µM
[7] = second compound 1 µM, first compound 0.0316 µM
[8] = second compound 1 µM, first compound 0.1 µM
[9] = second compound 3.16 µM, first compound 0.0316 µM
[10] = second compound 3.16 µM, first compound 0.1 µM
[11] = second compound 10 µM, first compound 0.0316 µM
[12] = second compound 10 µM, first compound 0.1 µM
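Also: spheroids exposed to agents for seven days before readout.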
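For viability, T/C in this document: percent of vehicle DMSO control viability so 100% = untreated growth.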

CC(=O)c1c(C)c2cnc(Nc3ccc(N4CCNCC4)cn3)nc2n(C2CCCC2)c1=O + Cc1nc(NC(=O)N2CCCC2C(N)=O)sc1-c1ccnc(C(C)(C)C(F)(F)F)c1
IC50 (second compound 0.0316 µM): > 100 nM | IC50 (second compound 0.1 µM): > 100 nM | IC50 (second compound 0.316 µM): > 100 nM | IC50 (second compound 1 µM): > 100 nM | IC50 (second compound 3.16 µM): < 0.316 nM | IC50 (second compound 10 µM): < 0.316 nM | viability, T/C (second compound 0.0316 µM, first compound 0.000316 µM): 95.6% | viability, T/C (second compound 0.0316 µM, first compound 0.001 µM): 83.4% | viability, T/C (second compound 0.0316 µM, first compound 0.00316 µM): 91.6% | viability, T/C (second compound 0.0316 µM, first compound 0.01 µM): 79.5% | viability, T/C [1]: 91.8% | viability, T/C [2]: 77.7% | viability, T/C (second compound 0.1 µM, first compound 0.000316 µM): 71.9% | viability, T/C (second compound 0.1 µM, first compound 0.001 µM): 83.8% | viability, T/C (second compound 0.1 µM, first compound 0.00316 µM): 85.7% | viability, T/C (second compound 0.1 µM, first compound 0.01 µM): 76.2% | viability, T/C [3]: 78.9% | viability, T/C [4]: 73.7% | viability, T/C (second compound 0.316 µM, first compound 0.000316 µM): 71.7% | viability, T/C (second compound 0.316 µM, first compound 0.001 µM): 74.2% | viability, T/C (second compound 0.316 µM, first compound 0.00316 µM): 80.5% | viability, T/C (second compound 0.316 µM, first compound 0.01 µM): 65.2% | viability, T/C [5]: 66.7% | viability, T/C [6]: 81.5% | viability, T/C (second compound 1 µM, first compound 0.000316 µM): 62.3% | viability, T/C (second compound 1 µM, first compound 0.001 µM): 56.3% | viability, T/C (second compound 1 µM, first compound 0.00316 µM): 52.7% | viability, T/C (second compound 1 µM, first compound 0.01 µM): 65.6% | viability, T/C [7]: 64.4% | viability, T/C [8]: 57.2% | viability, T/C (second compound 3.16 µM, first compound 0.000316 µM): 46.1% | viability, T/C (second compound 3.16 µM, first compound 0.001 µM): 45.5% | viability, T/C (second compound 3.16 µM, first compound 0.00316 µM): 39.2% | viability, T/C (second compound 3.16 µM, first compound 0.01 µM): 43.9% | viability, T/C [9]: 48.1% | viability, T/C [10]: 41.1% | viability, T/C (second compound 10 µM, first compound 0.000316 µM): 27.9% | viability, T/C (second compound 10 µM, first compound 0.001 µM): 30.6% | viability, T/C (second compound 10 µM, first compound 0.00316 µM): 25.9% | viability, T/C (second compound 10 µM, first compound 0.01 µM): 35.7% | viability, T/C [11]: 33.3% | viability, T/C [12]: 38.2%

CC1(C)CCC(Nc2ncc(C(F)(F)F)c(-c3c[nH]c4c(P(C)(C)=O)c(C#N)ccc34)n2)CN1 (centres undefined) + Cc1nc(NC(=O)N2CCCC2C(N)=O)sc1-c1ccnc(C(C)(C)C(F)(F)F)c1
IC50 (second compound 0.0316 µM): < 31.6 nM | IC50 (second compound 0.1 µM): < 31.6 nM | IC50 (second compound 0.316 µM): < 31.6 nM | IC50 (second compound 1 µM): < 31.6 nM | IC50 (second compound 3.16 µM): < 31.6 nM | IC50 (second compound 10 µM): < 31.6 nM | viability, T/C [1]: 39.2% | viability, T/C [2]: 27.6% | viability, T/C (second compound 0.0316 µM, first compound 0.316 µM): 33.3% | viability, T/C (second compound 0.0316 µM, first compound 1 µM): 30.5% | viability, T/C (second compound 0.0316 µM, first compound 3.16 µM): 38.8% | viability, T/C (second compound 0.0316 µM, first compound 10 µM): 6.62% | viability, T/C [3]: 36.2% | viability, T/C [4]: 33.4% | viability, T/C (second compound 0.1 µM, first compound 0.316 µM): 32.2% | viability, T/C (second compound 0.1 µM, first compound 1 µM): 30.9% | viability, T/C (second compound 0.1 µM, first compound 3.16 µM): 38.4% | viability, T/C (second compound 0.1 µM, first compound 10 µM): 7.19% | viability, T/C [5]: 28.8% | viability, T/C [6]: 27.6% | viability, T/C (second compound 0.316 µM, first compound 0.316 µM): 28.4% | viability, T/C (second compound 0.316 µM, first compound 1 µM): 27.2% | viability, T/C (second compound 0.316 µM, first compound 3.16 µM): 32.8% | viability, T/C (second compound 0.316 µM, first compound 10 µM): 6.05% | viability, T/C [7]: 27.4% | viability, T/C [8]: 26.9% | viability, T/C (second compound 1 µM, first compound 0.316 µM): 28.2% | viability, T/C (second compound 1 µM, first compound 1 µM): 25.9% | viability, T/C (second compound 1 µM, first compound 3.16 µM): 23.1% | viability, T/C (second compound 1 µM, first compound 10 µM): 3.48% | viability, T/C [9]: 23.1% | viability, T/C [10]: 21.1% | viability, T/C (second compound 3.16 µM, first compound 0.316 µM): 22.7% | viability, T/C (second compound 3.16 µM, first compound 1 µM): 24% | viability, T/C (second compound 3.16 µM, first compound 3.16 µM): 20.9% | viability, T/C (second compound 3.16 µM, first compound 10 µM): 2.65% | viability, T/C [11]: 15.8% | viability, T/C [12]: 18.1% | viability, T/C (second compound 10 µM, first compound 0.316 µM): 19.4% | viability, T/C (second compound 10 µM, first compound 1 µM): 17.7% | viability, T/C (second compound 10 µM, first compound 3.16 µM): 12.7% | viability, T/C (second compound 10 µM, first compound 10 µM): 1.03%
